Columns and labels:
Assay type in all cases: in vivo
[1] = tested on: upland rice (Oryza sp., var. Tebonnet, RICE); experiment: Pre-emerge test, crop safety; settings: pre-emerge, 14 days after application, rating scale 0-100
How it was run: (§1)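 Compounds in acetone were track-sprayed at 187 l/ha, 15–1000 g ai/ha, onto sandy loam pots. Pre-emerge seeds were sown one day before spraying, with surface watering afterwards. Post-emerge plants were at the 2–3 leaf stage and sprayed with 0.25% v/v non-ionic surfactant. Injury was rated 0–100 at 14 days.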

[2] = tested on: field corn (Zea mays L., var. Dekalb 535, CORN); experiment: Pre-emerge test, crop safety; settings: pre-emerge, 14 days after application, rating scale 0-100
How it was run: as §1

[3] = tested on: redroot pigweed (Amaranthus retroflexus, AMARE); experiment: Pre-emerge test, greenhouse herbicide activity screening; settings: pre-emerge, 14 days after application, rating scale 0-100
How it was run: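 Herbicidal damage is scored 0 (none) to 100 (complete plant death) two weeks after a simulated field spray. Rates span 15–1000 g ai/ha, delivered in acetone at 187 l/ha. For post-emergence treatments, plants have 2–3 leaves and the spray carries 0.25% v/v non-ionic surfactant.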

[4] = tested on: barnyardgrass (Echinochloa crus-galli, ECHCG); experiment: Post-emerge test, greenhouse herbicide activity screening; settings: post-emerge, 14 days after application, rating scale 0-100
How it was run: (§2)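 Fourteen days after spraying, crop and weed injury was graded visually from 0, no effect, to 100, every plant dead. Test substances were dissolved in acetone and applied at 15–1000 g ai/ha with a flat-fan nozzle. Application was either pre-emergence, one day after sowing, or post-emergence at the 2–3 leaf stage.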

[5] = tested on: ivyleaf morningglory (Ipomoea hederacea, IPOHE); experiment: as above; settings: post-emerge, 14 days after application, rating scale 0-100
How it was run: as §2

[6] = tested on: large crabgrass (Digitaria sanguinalis, DIGSA); experiment: as above; settings: post-emerge, 14 days after application, rating scale 0-100
How it was run: as §2

[7] = tested on: velvetleaf (Abutilon theophrasti, ABUTH); experiment: as above; settings: post-emerge, 14 days after application, rating scale 0-100
How it was run: as §2

[8] = tested on: sicklepod (Cassia obtusifolia, CASOB); experiment: as above; settings: post-emerge, 14 days after application, rating scale 0-100
How it was run: as §2

[9] = tested on: green foxtail (Setaria viridis, SETVI); experiment: as above; settings: post-emerge, 14 days after application, rating scale 0-100
How it was run: as §2

[10] = tested on: lambsquarters (Chenopodium album, CHEAL); experiment: as above; settings: post-emerge, 14 days after application, rating scale 0-100
How it was run: as §2

[11] = tested on: redroot pigweed (Amaranthus retroflexus, AMARE); experiment: as above; settings: post-emerge, 14 days after application
How it was run: as §2

[12] = tested on: johnsongrass (Sorghum halepense, SORHA); experiment: as above; settings: post-emerge, 14 days after application, rating scale 0-100
How it was run: as §2

[13] = tested on: barnyardgrass (Echinochloa crus-galli, ECHCG); experiment: Pre-emerge test, greenhouse herbicide activity screening; settings: pre-emerge, 14 days after application, rating scale 0-100
How it was run: as §1

[14] = tested on: ivyleaf morningglory (Ipomoea hederacea, IPOHE); experiment: as above; settings: pre-emerge, 14 days after application, rating scale 0-100
How it was run: as §1

[15] = tested on: large crabgrass (Digitaria sanguinalis, DIGSA); experiment: as above; settings: pre-emerge, 14 days after application, rating scale 0-100
How it was run: as §1

[16] = tested on: velvetleaf (Abutilon theophrasti, ABUTH); experiment: as above; settings: pre-emerge, 14 days after application, rating scale 0-100
How it was run: as §1

[17] = tested on: sicklepod (Cassia obtusifolia, CASOB); experiment: as above; settings: pre-emerge, 14 days after application, rating scale 0-100
How it was run: as §1

[18] = tested on: common ragweed (Ambrosia artemisizfolia L., AMBEL); experiment: as above; settings: pre-emerge, 14 days after application, rating scale 0-100
How it was run: as §1

[19] = tested on: green foxtail (Setaria viridis, SETVI); experiment: as above; settings: pre-emerge, 14 days after application, rating scale 0-100
How it was run: as §1

[20] = tested on: lambsquarters (Chenopodium album, CHEAL); experiment: as above; settings: pre-emerge, 14 days after application, rating scale 0-100
How it was run: as §1

[21] = tested on: johnsongrass (Sorghum halepense, SORHA); experiment: as above; settings: pre-emerge, 14 days after application, rating scale 0-100
How it was run: as §1

[22] = tested on: upland rice (Oryza sp., var. Tebonnet, RICE); experiment: Post-emerge test, crop safety; settings: post-emerge, 14 days after application, rating scale 0-100
How it was run: as §1

[23] = tested on: field corn (Zea mays L., var. Dekalb 535, CORN); experiment: Post-emerge test, crop safety; settings: post-emerge, 14 days after application, rating scale 0-100
How it was run: as §1

[24] = 63 g ai/ha, rating scale 0-100 (0 no damage, 100 complete death)
[25] = 250 g ai/ha, rating scale 0-100

## CCOC(=O)C(Cl)Cc1c(OC)c(Cl)cc(F)c1-n1nc(C(F)(F)F)n(C)c1=O (centres unmarked) [14-61]
[1]; 63 g ai/ha
  phytotoxicity rating RICE: 0
[1]; 250 g ai/ha
  phytotoxicity rating RICE: 0
[2]; 63 g ai/ha
  phytotoxicity rating CORN: 0
[2]; 250 g ai/ha
  phytotoxicity rating CORN: 0
[3]; 63 g ai/ha
  phytotoxicity rating AMARE: 30
[3]; 250 g ai/ha
  phytotoxicity rating AMARE: 95
[4]; 63 g ai/ha
  Post-emerge Herbicidal Activity ECHCG (phytotoxicity rating): 0
[4]; 250 g ai/ha
  Post-emerge Herbicidal Activity ECHCG (phytotoxicity rating): 60
[5]; 63 g ai/ha
  Post-emerge Herbicidal Activity IPOHE (phytotoxicity rating): 20
[5]; 250 g ai/ha
  Post-emerge Herbicidal Activity IPOHE (phytotoxicity rating): 50
[6]; 63 g ai/ha
  Post-emerge Herbicidal Activity DIGSA (phytotoxicity rating): 0
[6]; 250 g ai/ha
  Post-emerge Herbicidal Activity DIGSA (phytotoxicity rating): 70
[7]; 63 g ai/ha
  Post-emerge Herbicidal Activity ABUTH (phytotoxicity rating): 30
[7]; 250 g ai/ha
  Post-emerge Herbicidal Activity ABUTH (phytotoxicity rating): 60
[8]; 63 g ai/ha
  Post-emerge Herbicidal Activity CASOB (phytotoxicity rating): 0
[8]; 250 g ai/ha
  Post-emerge Herbicidal Activity CASOB (phytotoxicity rating): 30
[9]; 63 g ai/ha
  Post-emerge Herbicidal Activity SETVI (phytotoxicity rating): 0
[9]; 250 g ai/ha
  Post-emerge Herbicidal Activity SETVI (phytotoxicity rating): 20
[10]; 63 g ai/ha
  Post-emerge Herbicidal Activity CHEAL (phytotoxicity rating): 40
[10]; 250 g ai/ha
  Post-emerge Herbicidal Activity CHEAL (phytotoxicity rating): 75
[11]; [24]
  Post-emerge Herbicidal Activity AMARE (phytotoxicity rating): 20
[11]; [25]
  Post-emerge Herbicidal Activity AMARE (phytotoxicity rating): 60
[12]; 63 g ai/ha
  Post-emerge Herbicidal Activity SORHA (phytotoxicity rating): 0
[12]; 250 g ai/ha
  Post-emerge Herbicidal Activity SORHA (phytotoxicity rating): 20
[13]; 63 g ai/ha
  phytotoxicity rating ECHCG: 0
[13]; 250 g ai/ha
  phytotoxicity rating ECHCG: 0
[14]; 63 g ai/ha
  phytotoxicity rating IPOHE: 0
[14]; 250 g ai/ha
  phytotoxicity rating IPOHE: 20
[15]; 63 g ai/ha
  phytotoxicity rating DIGSA: 0
[15]; 250 g ai/ha
  phytotoxicity rating DIGSA: 40
[16]; 63 g ai/ha
  phytotoxicity rating ABUTH: 0
[16]; 250 g ai/ha
  phytotoxicity rating ABUTH: 40
[17]; 63 g ai/ha
  phytotoxicity rating CASOB: 0
[17]; 250 g ai/ha
  phytotoxicity rating CASOB: 0
[18]; 63 g ai/ha
  phytotoxicity rating AMBEL: 0
[18]; 250 g ai/ha
  phytotoxicity rating AMBEL: 0
[19]; 63 g ai/ha
  phytotoxicity rating SETVI: 0
[19]; 250 g ai/ha
  phytotoxicity rating SETVI: 60
[20]; 63 g ai/ha
  phytotoxicity rating CHEAL: 0
[20]; 250 g ai/ha
  phytotoxicity rating CHEAL: 80
[21]; 63 g ai/ha
  phytotoxicity rating SORHA: 0
[21]; 250 g ai/ha
  phytotoxicity rating SORHA: 20
[22]; 63 g ai/ha
  Post-emerge Herbicidal Activity RICE (crop damage rating): 0
[22]; 250 g ai/ha
  Post-emerge Herbicidal Activity RICE (crop damage rating): 30
[23]; 63 g ai/ha
  Post-emerge Herbicidal Activity CORN (crop damage rating): 0
[23]; 250 g ai/ha
  Post-emerge Herbicidal Activity CORN (crop damage rating): 70

## CCCOC(=O)C(Cl)Cc1c(OCC)c(Cl)cc(F)c1-n1c(=O)cc(C(F)(F)F)n(C)c1=O (centres unmarked) [14-65]
[1]; 63 g ai/ha
  phytotoxicity rating RICE: 0
[1]; 250 g ai/ha
  phytotoxicity rating RICE: 0
[2]; 63 g ai/ha
  phytotoxicity rating CORN: 0
[2]; 250 g ai/ha
  phytotoxicity rating CORN: 0
[3]; 63 g ai/ha
  phytotoxicity rating AMARE: 100
[3]; 250 g ai/ha
  phytotoxicity rating AMARE: 100
[4]; 63 g ai/ha
  Post-emerge Herbicidal Activity ECHCG (phytotoxicity rating): 100
[4]; 250 g ai/ha
  Post-emerge Herbicidal Activity ECHCG (phytotoxicity rating): 100
[5]; 63 g ai/ha
  Post-emerge Herbicidal Activity IPOHE (phytotoxicity rating): 50
[5]; 250 g ai/ha
  Post-emerge Herbicidal Activity IPOHE (phytotoxicity rating): 70
[6]; 63 g ai/ha
  Post-emerge Herbicidal Activity DIGSA (phytotoxicity rating): 99
[6]; 250 g ai/ha
  Post-emerge Herbicidal Activity DIGSA (phytotoxicity rating): 100
[7]; 63 g ai/ha
  Post-emerge Herbicidal Activity ABUTH (phytotoxicity rating): 100
[7]; 250 g ai/ha
  Post-emerge Herbicidal Activity ABUTH (phytotoxicity rating): 100
[8]; 63 g ai/ha
  Post-emerge Herbicidal Activity CASOB (phytotoxicity rating): 90
[8]; 250 g ai/ha
  Post-emerge Herbicidal Activity CASOB (phytotoxicity rating): 100
[9]; 63 g ai/ha
  Post-emerge Herbicidal Activity SETVI (phytotoxicity rating): 100
[9]; 250 g ai/ha
  Post-emerge Herbicidal Activity SETVI (phytotoxicity rating): 100
[10]; 63 g ai/ha
  Post-emerge Herbicidal Activity CHEAL (phytotoxicity rating): 90
[10]; 250 g ai/ha
  Post-emerge Herbicidal Activity CHEAL (phytotoxicity rating): 100
[11]; [24]
  Post-emerge Herbicidal Activity AMARE (phytotoxicity rating): 100
[11]; [25]
  Post-emerge Herbicidal Activity AMARE (phytotoxicity rating): 100
[12]; 63 g ai/ha
  Post-emerge Herbicidal Activity SORHA (phytotoxicity rating): 30
[12]; 250 g ai/ha
  Post-emerge Herbicidal Activity SORHA (phytotoxicity rating): 60
[13]; 63 g ai/ha
  phytotoxicity rating ECHCG: 0
[13]; 250 g ai/ha
  phytotoxicity rating ECHCG: 80
[14]; 63 g ai/ha
  phytotoxicity rating IPOHE: 40
[14]; 250 g ai/ha
  phytotoxicity rating IPOHE: 70
[15]; 63 g ai/ha
  phytotoxicity rating DIGSA: 90
[15]; 250 g ai/ha
  phytotoxicity rating DIGSA: 100
[16]; 63 g ai/ha
  phytotoxicity rating ABUTH: 90
[16]; 250 g ai/ha
  phytotoxicity rating ABUTH: 100
[17]; 63 g ai/ha
  phytotoxicity rating CASOB: 40
[17]; 250 g ai/ha
  phytotoxicity rating CASOB: 80
[18]; 63 g ai/ha
  phytotoxicity rating AMBEL: 100
[18]; 250 g ai/ha
  phytotoxicity rating AMBEL: 70
[19]; 63 g ai/ha
  phytotoxicity rating SETVI: 20
[19]; 250 g ai/ha
  phytotoxicity rating SETVI: 90
[20]; 63 g ai/ha
  phytotoxicity rating CHEAL: 60
[20]; 250 g ai/ha
  phytotoxicity rating CHEAL: 100
[21]; 63 g ai/ha
  phytotoxicity rating SORHA: 20
[21]; 250 g ai/ha
  phytotoxicity rating SORHA: 20
[22]; 63 g ai/ha
  Post-emerge Herbicidal Activity RICE (crop damage rating): 0
[22]; 250 g ai/ha
  Post-emerge Herbicidal Activity RICE (crop damage rating): 10
[23]; 63 g ai/ha
  Post-emerge Herbicidal Activity CORN (crop damage rating): 0
[23]; 250 g ai/ha
  Post-emerge Herbicidal Activity CORN (crop damage rating): 50

Source: patent publication US6355799B1, “Substituted benzene compounds, process for their preparation, and herbicidal and defoliant compositions containing them” (ISK Americas Incorporated, priority 1997, dated 2002)
